Literature values as cited in patent US20230405125A1, “TREATMENT OF RECURRENT GIOBLASTOMA WITH PERILLYL ALCOHOL” (NeOnc Technologies, Inc., priority 2020, published 2023).
Entries after “also recorded” stand apart in the source; their conditions may differ. Where two headings read alike, the source gives them in different places.

Assays:
[1] = molecular target: farnesyl-protein transferase (FPT) (Homo sapiens, UniProt P49354+P49356)
[2] = system: patients with different solid tumors; conditions: oral POH
[3] = system: patients with recurrent malignant gliomas
[4] = Reardon et al. (CheckMate 143) 2020

In the case of `CCOP(=O)(OCC)C(C)NC(=O)N(CCCl)N=O` (stereo not drawn) [Fotemustine], the OS-6 (recurrent GBM patients; human, in vivo) is given as 73%, the OS-9 (recurrent GBM patients; human, in vivo) is given as 47% and the OS-12 (recurrent GBM patients; human, in vivo) is given as 40%. The “median OS” value (recurrent GBM patients; human, in vivo) was 8.7 months.
In the case of `O=NN(CCCl)C(=O)NC1CCCCC1` [Lomustine], the OS-6 (recurrent GBM patients; Batchelor et al. 2013) is given as 70%, the OS-9 (recurrent GBM patients; Batchelor et al. 2013) is given as 52% and the OS-12 (recurrent GBM patients; Batchelor et al. 2013) is given as 41%. For the same molecule, the “median OS” value (recurrent GBM patients; Batchelor et al. 2013) was 9.8 months.
In the case of `C=C(C)[C@@H]1CC=C(CO)CC1` [POH], the “effect on FPT enzymatic activity” value [1] is given as “inhibit”, the anti-cancer efficacy [2] is given as “limited” and the tolerability [2] is given as “Gastrointestinal toxicity proved dose-limiting”. For the same molecule, the tolerability ([2]; listed as perillyl alcohol) was “poorly tolerated”, the “six month progression free survival rate” value ([3]; intranasal commercial grade POH with solvent cocktail, 150 patients) was 50% and the radiographic response ([3]; intranasal commercial-grade POH) was “Radiographic regression”. The “tolerability / adverse effects” value ([3]; intranasal commercial-grade POH, four times daily) was “minimal side effect; also recorded: good tolerance; also recorded: no severe adverse effects”.
For “Bevacizumab: humanized monoclonal antibody against VEGF (vascular endothelial growth factor)”, the OS-6 (recurrent GBM patients; Field et al. (CABARET) 2015) is listed as 61%, the OS-9 (recurrent GBM patients; Field et al. (CABARET) 2015) is listed as 39% and the OS-12 (recurrent GBM patients; Field et al. (CABARET) 2015) is listed as 24%. The “median OS” value (recurrent GBM patients; Field et al. (CABARET) 2015) was 7.5 months, the OS-6 (recurrent GBM patients; Heiland et al. 2016) was 18% and the OS-12 (recurrent GBM patients; Heiland et al. 2016) was 10%. For the same molecule, the “median OS” value (recurrent GBM patients; Heiland et al. 2016) was 4.1 months, the OS-6 (recurrent GBM patients; Taal et al. (BELOB) 2014) was 64% and the OS-9 (recurrent GBM patients; Taal et al. (BELOB) 2014) was 38%. For the same molecule, the OS-12 (recurrent GBM patients; Taal et al. (BELOB) 2014) was 26% and the “median OS” value (recurrent GBM patients; Taal et al. (BELOB) 2014) was 8.0 months.
For “Nivolumab: fully human monoclonal antibody targeting the programmed death-1 (PD-1) immune checkpoint receptor”, the OS-6 (recurrent GBM patients; [4]) is listed as 72%, the OS-9 (recurrent GBM patients; [4]) is listed as 52% and the OS-12 (recurrent GBM patients; [4]) is listed as 42%. The “median OS” value (recurrent GBM patients; [4]) was 9.8 months.
